# Reference: US5514653A, “Method of blocking the SEC receptor” (Washington University, priority 1994, dated 1996)
# “Also recorded” adds a separate entry of the source. Where two headings read alike, the source gives them in different places. No end group written: not given here.
# Columns and labels:
# [1] = molecular target: substance P receptor (Homo sapiens, UniProt P25103); conditions: cited from earlier work
# [2] = tested on: PC12 cells; assay: MTT assay of neurotoxicity in PC12 cells; assay type: cell-based; conditions: for effect on MTT reduction: FIG. 1 and 2
# Method: (§1) The MTT assay (19) was used to monitor the neurotoxicity of amyloid-β peptide. […] Inhibition of MTT reduction is a specific, early indicator of amyloid-β-mediated cytotoxicity. The PC12 cell line was used because it is the most well characterized cell line of neuronal origin and because previous studies have shown there is abundant expression of SEC receptor in this cell line.
# (§2) First, the effect of amyloid-β 25-35 on MTT reduction in PC12 cells was examined (FIG. 1). PC12 cells were incubated for six (6) hours at 37° C. with amyloid-β 25-35 in several different concentrations as shown on the horizontal axis. MTT was added and the cells incubated at 37° C. for another two (2) hours. Cell extraction buffer was added and the incubation continued at 37° C. overnight. Cell extracts were then subjected to spectro-photometric analysis at 570 nm.
# Second, the specificity of the effect of amyloid-β 25-35 on MTT reduction in PC12 cells was examined (FIG. 2).
# (§3) In the MTT assay used herein, inhibition of cellular redox activity is measured by 3- 4,5-dimethylthiazol-2-yl!-2,5-diphenyltetrazolium bromide (MTT) by conventional procedures as described by Hansen et al. (19).
# [3] = tested on: neutrophils; conditions: cited from earlier work
# [4] = tested on: SEC receptor; conditions: cited from earlier work
# [5] = tested on: PC12 cells; assay: Inhibition of amyloid-β 25-35 neurotoxicity (MTT assay) in PC12 cells; assay type: cell-based; conditions: FIG. 3 and 4
# Description: as §1, with “line. Using ^125 I peptide 105Y there is specific, saturable binding.” for “line.”
# as §2, with “[…] Results” for “Cell extracts”, “reported as percent control response as determined by the difference between control cells and cells lysed prior” for “then subjected”, “incubation with MTT. […]” for “spectro-photometric analysis at 570 nm.”
# as §3
# [6] = tested on: neurons; conditions: cited from earlier work
# [7] = tested on: SEC receptor; assay: Competition for binding to the SEC receptor
# Chain of substance P receptor (P25103 whole entry, species assumed): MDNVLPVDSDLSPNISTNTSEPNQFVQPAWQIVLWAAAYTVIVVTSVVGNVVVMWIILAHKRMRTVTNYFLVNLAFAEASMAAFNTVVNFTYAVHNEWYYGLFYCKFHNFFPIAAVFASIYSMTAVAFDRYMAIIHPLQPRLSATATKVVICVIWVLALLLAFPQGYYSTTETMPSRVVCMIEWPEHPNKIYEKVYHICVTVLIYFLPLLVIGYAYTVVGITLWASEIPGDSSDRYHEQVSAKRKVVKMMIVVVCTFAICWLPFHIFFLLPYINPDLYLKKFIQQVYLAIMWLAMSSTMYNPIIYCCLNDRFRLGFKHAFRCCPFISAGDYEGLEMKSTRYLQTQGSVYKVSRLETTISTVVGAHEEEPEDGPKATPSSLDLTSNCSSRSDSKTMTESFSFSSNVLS
compound,measurement,setting,value
CSCC[C@H](NC(=O)[C@H](CC(C)C)NC(=O)[C@H](Cc1cnc[nH]1)NC(=O)CNC(=O)[C@@H](NC(=O)[C@H](C)NC(=O)[C@H](Cc1c[nH]c2ccccc12)NC(=O)[C@H](CCC(N)=O)NC(=O)[C@H](CC(N)=O)NC(=O)CNC(=O)[C@H](CC(C)C)NC(=O)[C@H](CCCN=C(N)N)NC(=O)[C@H](CCC(N)=O)NC(=O)[C@@H]1CCC(=O)N1)C(C)C)C(N)=O [bombesin],binding to / recognition by the substance P receptor,[1],does not recognize
IAGRSLNPNRVTLRYNKPFILVLFETPGNSLVFLGRISNPATK [PB145],neurotoxic activity of the peptide by itself,[2]; peptide alone,did not have any neurotoxic activity by itself
amyloid-β,binding to / recognition by the substance P receptor,[1],does not recognize
same,binding to / recognition by the substance P receptor,[1]; listed as Amyloid-β,do not bind to the substance P receptor
same,neutrophil chemotactic effect,[3],neutrophil chemotactic effects
same,binding to / recognition by the SEC receptor,[4],bind to the SEC receptor
amyloid-β 1-28: region of the amyloid-β protein,effect on MTT reduction,[2],no effect
amyloid-β 1-40: region of the amyloid-β protein,effect on MTT reduction,[2],effect similar to that of amyloid-β 25-35
"native α1-AT: native α1-antitrypsin, negative control",inhibition of the effect of amyloid-β 25-35 (neurotoxicity),[5],does not
neurokinin B,binding to / recognition by the SEC receptor,[4],approximately similar affinities
substance K,binding to / recognition by the SEC receptor,[4],approximately similar affinities
substance P,desensitization of the SEC receptor on neutrophils to chemotactic effects of amyloid-β,[3],elicited homologous desensitization
same,neutrophil chemotactic effect,[3],neutrophil chemotactic effects
same,blocking of amyloid-β 25-35 effects on neurons,[6],blocked
same,binding to / recognition by the SEC receptor,[4],bind to the SEC receptor; also recorded: approximately similar affinities
α1 -AT-elastase complexes: complexes of α1-antitrypsin with elastase which compete for binding to the SEC receptor,competition for binding to the SEC receptor,[7],compete for binding to the SEC receptor
same,inhibition of the effect of amyloid-β 25-35 (neurotoxicity),[5],inhibit the effect of amyloid-β 25-35
